Reference: patent US20250073242A1, “SLC26A3 INHIBITORS AND USE THEREOF” (THE REGENTS OF THE UNIVERSITY OF CALIFORNIA, priority 2021, published 2025)
One block for each compound: values may come before it.

Legend:
SLC26A3 [1] = target: T1, SLC26A3 (Mus musculus, UniProt Q9WVC8); test: SLC26A3 inhibition, concentration-dependence (high throughput screening and structure-activity studies); format: cell-based
T1 sequence (Q9WVC8 1-757): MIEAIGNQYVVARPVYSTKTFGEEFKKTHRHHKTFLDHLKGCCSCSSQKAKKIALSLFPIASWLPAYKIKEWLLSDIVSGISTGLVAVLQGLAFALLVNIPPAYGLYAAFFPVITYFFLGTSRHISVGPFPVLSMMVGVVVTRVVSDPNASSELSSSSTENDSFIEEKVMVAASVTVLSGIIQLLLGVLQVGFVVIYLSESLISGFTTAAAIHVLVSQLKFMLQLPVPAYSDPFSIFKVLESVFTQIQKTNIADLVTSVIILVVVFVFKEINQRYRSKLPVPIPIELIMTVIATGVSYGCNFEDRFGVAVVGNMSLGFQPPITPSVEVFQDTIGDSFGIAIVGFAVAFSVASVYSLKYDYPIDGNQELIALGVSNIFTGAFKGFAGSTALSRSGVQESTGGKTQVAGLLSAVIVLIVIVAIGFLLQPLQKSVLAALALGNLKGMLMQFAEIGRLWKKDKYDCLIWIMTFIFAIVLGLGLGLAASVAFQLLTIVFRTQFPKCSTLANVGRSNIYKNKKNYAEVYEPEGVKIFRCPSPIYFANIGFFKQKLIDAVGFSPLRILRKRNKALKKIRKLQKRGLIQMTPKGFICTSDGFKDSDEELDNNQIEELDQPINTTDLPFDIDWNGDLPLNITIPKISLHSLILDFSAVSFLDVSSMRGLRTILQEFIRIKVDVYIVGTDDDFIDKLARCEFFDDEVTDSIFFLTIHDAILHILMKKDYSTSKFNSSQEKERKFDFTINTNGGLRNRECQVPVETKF

SLC26A3 [2] = target: T1, SLC26A3; test: Transepithelial oxalate transport in FRT monolayers expressing SLC26A3; format: cell-based; details: pretreatment 15 min, even at 0.1 μM; 500 μM oxalate gradient
Procedure: In order to determine the effects of DRAinh-A270 on oxalate transport at physiologically relevant concentrations, transepithelial oxalate transport was measured in Fischer rat thyroid (FRT) monolayers expressing SLC26A3 (FRT-A3 cells) permeable filters and exposed to a 500 μM oxalate concentration gradient.
Oxalate transport rate plotted for studies done in FRT cells expressing SLC26A3 (FRT-A3) pretreated with indicated concentrations of DRAinh-A270 (or DMSO control) for 15 min prior to application of the oxalate gradient. FRT cells not expressing SLC26A3 (FRT-null) are shown as controls. Mean±S.E.M., n=6-12 wells per condition. One-way analysis of variance with post hoc Newman-Keuls multiple comparisons test, **p<0.01, ns: not significant.

DRA = target: T2, DRA (Mus musculus, UniProt Q9WVC8); test: Extracellular action: reversal of DRA inhibition after washout; format: cell-based; details: cells incubated 10 min at 5 times IC50; measured at 20-30 second after washout
T2 sequence (Q9WVC8 1-757): T1 sequence (Q9WVC8 1-757)
Procedure: Inhibition was then measured without washout and at 20-30 second after washout.

[3] = test system: mouse distal colonic loops; test: Oxalate absorption in closed distal colonic loops; format: in vivo; details: luminal 10 μM, 500 μM oxalate, 60 min
Procedure: To investigate DRAinh-A270 inhibition of intestinal oxalate transport, experiments were conducted using closed distal colonic loops in which SLC26A3 is the major apical membrane anion transporter. Colonic loops were injected with the solution containing 500 μM sodium oxalate and loop fluid was removed at 60 min to quantify remaining oxalate concentration. To avoid confounding effects of fluid absorption, Cl^−-free solution with amiloride (to block ENaC) was used.

- IC50 (SLC26A3 [1]; Class F, Table 2): 470 nM
SMILES: Cc1cccc(NS(=O)(=O)c2nnc(NC(=O)c3cccc(C)c3)s2)c1 [DRAinh-F0165]

- IC50 (SLC26A3 [1]; Class F, Table 2): 310 nM
SMILES: COc1cccc(C(=O)Nc2nnc(S(=O)(=O)Nc3cccc(C)c3)s2)c1 [DRAinh-F0170]

- IC50 (SLC26A3 [1]; Class E, Table 1): 690 nM
SMILES: CC(C)CN1C(=O)c2ccc(C(=O)Nc3ccccc3C(=O)O)cc2C1=O [DRAinh-E0078]

- IC50 (SLC26A3 [1]; Class E, Table 1): 310 nM
SMILES: Cc1ccc(N2C(=O)c3ccc(C(=O)Nc4ccccc4C(=O)O)cc3C2=O)cc1C [DRAinh-E2333]

Further lines, the compound ahead of its results:

SMILES: Cc1c(CC(=O)O)c(=O)oc2c(C)c(OCc3cccc(I)c3)ccc12 [DRAinh-A270]
- increased oxalate transport in FRT-A3 cells (SLC26A3 [2]): largely blocked
- reversal of inhibition after washout (DRA): no reversal
- reduction of oxalate absorption compared to vehicle control [3]: ~70%

SMILES: Cc1ccc(COc2ccc3oc(-c4ccccc4)c(C(=O)O)c3c2)cc1 [DRAinh-H0163]
- IC50 (SLC26A3 [1]; Class H, Table 4): 190 nM

SMILES: O=C(O)c1c(-c2ccccc2)oc2ccc(OCc3ccc(Cl)c(Cl)c3)cc12 [DRAinh-H0493]
- IC50 (SLC26A3 [1]; Class H, Table 4): 2300 nM

SMILES: Cc1ccccc1COc1ccc2oc(-c3ccccc3)c(C(=O)O)c2c1 [DRAinh-H0696]
- IC50 (SLC26A3 [1]; Class H, Table 4): 340 nM
